{
  "source": "patent US6030960A",
  "about": "“Method of treating hepatitis virus infections” (priority 1998, dated 2000)",
  "type_in_all_cases": "cell-based",
  "key": {"Hepatitis B virus [1]": {"system": "Hepatitis B virus", "test": "Effect on synthesis of antigen markers in persistently infected human HEP G2 cell cultures (Table 7)", "conditions": "nine days; for activity at 10 µM: Hepatitis B virus, HepG2, 216 h", "summary_of_the_method": "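Persistently infected HepG2 cells treated with compound for nine days at 37° C. Culture medium then harvested: HBsAg and HBeAg quantified by EIA, virion DNA by hybridisation-based DNA measurement. Sensitivity cut-off 0.1 pg DNA/ml medium.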"}, "[2]": {"test": "Cytotoxicity of alkyl lipids, neutral red dye uptake (Table 1)", "conditions": "human, hep-g2 cells", "summary_of_the_method": "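HepG2 cells carrying tandem HBV genomes, with a G418-resistance plasmid, were given four serial compound concentrations in triplicate in RPMI-1640 for nine days at 37° C, with periodic medium replacement. Viability was measured by 0.01% neutral red uptake (A510) and expressed as percent of untreated control wells ±SD.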"}, "Hepatitis B virus [3]": {"system": "Hepatitis B virus", "test": "Anti-hepatitis B virus activity in HEP-G2 cells persistently infected with HBV (Table 2)", "conditions": "Hepatitis B virus, HepG2, 216 h", "summary_of_the_method": "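HBV-persistently infected HepG2 cells were dosed daily with 10 μM compound in 20% FBS medium for 9 days. Medium HBsAg and HBeAg were measured by EIA and virion DNA by slot-blot hybridisation, each relative to untreated controls. EC90 (90% drop in HBV DNA replication intermediates) came from linear regression.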"}, "Hepatitis B virus [4]": {"system": "Hepatitis B virus", "test": "Effect of alkyl lipids on HBV replication in HBV persistently infected human HEP G2 cells (Table 6)", "conditions": "10 μM", "summary_of_the_method": "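Persistently HBV-infected HepG2 cells exposed to compound for nine days at 37 °C, intracellular HBV DNA analysed 24 h after day nine. Episomal 3.2-3.8 Kb genomes and replication intermediates normalized to integrated HBV DNA; virion DNA detection cut-off 0.1 pg DNA/ml culture medium.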"}, "Hepatitis B virus [5]": {"system": "Hepatitis B virus", "test": "Effects of CP-51 on HBV-induced DNA and RNA synthesis (Table 4)", "conditions": "for mrna remaining at 10 µM / activity at 10 µM: Hepatitis B virus, HepG2, 216 h", "protocol": "(§1) HEP-G2 cells persistently infected with HBV were treated daily with fresh D-MEM containing 20% FBS and 10 μM compound. After 9 days incubation and treatment, the overlay medium was harvested to assay the quantity of Hepatitis B virus s antigen (HBsAg) and HBeAg by EIA (Abbott Laboratories). The overlay medium was diluted to levels of antigen in the linear range of the assay. Standard curves using dilutions of positive HBsAg and HBeAg controls were included in each assay. Virion DNA was assayed using the method set forth in Korba and Gerin, Antiviral Res., 19, 5,5-70 (1992), incorporated by reference herein. HBV DNA was extracted from the overlay medium containing virus particles and analyzed by a slot-blot hybridization technique using ^32 P-labelled 3.2 Kb Eco R1 HBV DNA fragment by comparisons to HBV standards present on nitrocellulose filters using an AMBIS beta scanner. EC90 values (90% effective concentration, i.e., drug concentration which induces a 90% decrease in the levels of HBV DNA replication intermediates in treated versus control cells) were calculated by linear regression analysis. The relative levels of HBsAg, HBeAg and virion DNA were calulated as a percentage of the average levels obtained from the untreated controls.\nExperiments were performed to determine the effects of CP-51 on HBV induced DNA and RNA syntheses. HEP-G2 cells persistently infected with HBV were treated daily with fresh D-MEM containing 20% FBS and 10 μM compound. After 9 days incubation and treatment the cells and overlay medium were harvested separately to assay the quantity of nucleic acids. Details of the methodology of the assays are given in Section B above. Extracellular virion DNA in untreated cells ranged from 50 to 150 pg/ml in the overlay medium. Intracellular HBV DNA replication intermediates (RI) in untreated cells ranged from 50 to 100 pg/μg cell DNA. Hybridization analysis results in about 1 pg intracellular HBV DNA/μg cellular DNA to 2-3 genomic copies per cell and 1.0 pg of extracellular HBV DNA/ml overlay medium to […] viral particles/ml. HBV RNA was analyzed by Northern blot hybridization analysis using a ^32 P-labeled 3.2 Kb gel-purified cloned genomic probe. Quantitive analysis of intracellular HBV DNA anc 14BV RNA was performed using an AMBIS beta scanner."}, "Hepatitis B virus [6]": {"system": "Hepatitis B virus", "test": "Effect of alkyl lipid on HBV induction of antigen markers, DNA and RNA in persistently infected human HEP-G2 cell cultures (Table 8)", "conditions": "Hepatitis B virus, HepG2, 216 h", "protocol": "Further analyses were carried out with compound CP-51. Again, the cells were treated for nine days at 37° C. The overlay medium was harvested to measure levels of HBsAg, HBeAg, HBcAg, virion DNA, RI DNA and RNA levels. HBsAg and HBeAg were assayed by EIA (Abbott Laboratories). HBcAg was assayed by a solid phase EIA. HBV RNA was analyzed by Northern blot hybridization using a ^32 P-labelled 3.2 Kb genomic probe. Intracellular HBV RNA and RI HBV DNA was quantitated using a AMBIS beta scanner."}, "Hepatitis B virus [7]": {"system": "Hepatitis B virus", "test": "CP-51 against HBV-induced antigen syntheses in HEP-G2 cells persistently infected with HBV (Table 3)", "conditions": "for activity at 10 µM: Hepatitis B virus, HepG2, 216 h", "protocol": "as §1\nIn contrast, CP-51 inhibited HBeAg and HBcAg syntheses by 76 and 68%, respectively."}, "[8]": {"conditions": "read-out: Relative Level of HBeAg"}, "[9]": {"conditions": "read-out: Relative Level of HBsAg"}, "[10]": {"conditions": "read-out: Relative Level of Virion DNA"}, "[11]": {"conditions": "read-out: Relative Level of Total RNA"}},
  "note": "Values joined by “and” are separate entries in the source; they are usually repeats but may differ in a detail not shown here. Identical values can stand only once. Like-named read-outs stand apart in the source and are kept apart here.",
  "data": [
    {"smiles": "Nc1ccn([C@H]2CC[C@@H](CO)O2)c(=O)n1", "note": "[2',3'-dideoxycytidine, 2', 3'-dideoxycytidine, reference compound]", "values": [
      {"measurement": "Relative Level of HBeAg", "setting": "Hepatitis B virus [1]; 10 μM, 12960 min", "value": "115 % of Untreated Control and 98 % of Untreated Control"},
      {"measurement": "Relative Level of HBsAg", "setting": "Hepatitis B virus [1]; 10 μM, 12960 min", "value": "112 % of Untreated Control and 102 % of Untreated Control"},
      {"measurement": "Relative Level of Virion DNA", "setting": "Hepatitis B virus [1]; 10 μM, 12960 min", "value": "2 % of Untreated Control"},
      {"measurement": "activity at 10 µM", "setting": "Hepatitis B virus [1]; read-out: Relative Level of HBeAg, 10 μM", "value": 101, "unit": "%"},
      {"measurement": "activity at 10 µM", "setting": "Hepatitis B virus [1]; read-out: Relative Level of HBsAg, 10 μM", "value": 100, "unit": "%"},
      {"measurement": "activity at 10 µM", "setting": "Hepatitis B virus [1]; read-out: Relative Level of Virion DNA, 10 μM", "value": 2, "unit": "%"},
      {"measurement": "viability at 216 h, 3 µM", "setting": "[2]", "value": "100 ± 1", "unit": "%"},
      {"measurement": "viability at 216 h, 10 µM", "setting": "[2]", "value": "102 ± 1", "unit": "%"},
      {"measurement": "viability at 216 h, 30 µM", "setting": "[2]", "value": "99 ± 2", "unit": "%"},
      {"measurement": "viability at 216 h, 100 µM", "setting": "[2]", "value": "35 ± 2", "unit": "%"},
      {"measurement": "activity at 10 µM", "setting": "Hepatitis B virus [3]; [8]", "value": 108, "unit": "%"},
      {"measurement": "activity at 10 µM", "setting": "Hepatitis B virus [3]; [9]", "value": 106, "unit": "%"},
      {"measurement": "activity at 10 µM", "setting": "Hepatitis B virus [3]; [10]", "value": 2, "unit": "%"},
      {"measurement": "HBV Virion DNA", "setting": "Hepatitis B virus [4]; Day 0", "value": "67 pg/ml Culture Medium and 64 pg/ml Culture Medium and 58 pg/ml Culture Medium and 59 pg/ml Culture Medium"},
      {"measurement": "HBV Virion DNA", "setting": "Hepatitis B virus [4]; Day 3", "value": "49 pg/ml Culture Medium and 55 pg/ml Culture Medium and 50 pg/ml Culture Medium and 58 pg/ml Culture Medium"},
      {"measurement": "HBV Virion DNA", "setting": "Hepatitis B virus [4]; Day 6", "value": "20 pg/ml Culture Medium and 18 pg/ml Culture Medium and 17 pg/ml Culture Medium and 15 pg/ml Culture Medium"},
      {"measurement": "Intracellular HBV DNA, RI (replication intermediates)", "setting": "Hepatitis B virus [4]; nine days", "value": "8 pg/μg Cell DNA and 7 pg/μg Cell DNA and 9 pg/μg Cell DNA"},
      {"measurement": "effect on HBV-induced DNA and RNA syntheses", "setting": "Hepatitis B virus [5]; 10 μM, in words", "value": "inhibited HBV-induced DNA synthesis but not RNA syntheses"},
      {"measurement": "mrna remaining at 10 µM", "setting": "Hepatitis B virus [5]; read-out: Relative Level of 2.1 Kb RNA", "value": 105, "unit": "%"},
      {"measurement": "activity at 10 µM", "setting": "Hepatitis B virus [5]; read-out: Relative Level of 3.2 Kb DNA", "value": 46, "unit": "%"},
      {"measurement": "mrna remaining at 10 µM", "setting": "Hepatitis B virus [5]; read-out: Relative Level of 3.6 Kb RNA", "value": 92, "unit": "%"},
      {"measurement": "activity at 10 µM", "setting": "Hepatitis B virus [5]; read-out: Relative Level of HBV RI", "value": 6, "unit": "%"},
      {"measurement": "mrna remaining at 10 µM", "setting": "Hepatitis B virus [5]; [11]", "value": 92, "unit": "%"},
      {"measurement": "activity at 10 µM", "setting": "Hepatitis B virus [5]; [10]", "value": 2, "unit": "%"},
      {"measurement": "activity at 10 µM", "setting": "Hepatitis B virus [6]; read-out: Relative Level of HBcAg", "value": 102, "unit": "%"},
      {"measurement": "activity at 10 µM", "setting": "Hepatitis B virus [6]; [8]", "value": 95, "unit": "%"},
      {"measurement": "activity at 10 µM", "setting": "Hepatitis B virus [6]; [9]", "value": 96, "unit": "%"},
      {"measurement": "activity at 10 µM", "setting": "Hepatitis B virus [6]; read-out: Relative Level of Intracellular HBV-DNA", "value": 6, "unit": "%"},
      {"measurement": "activity at 10 µM", "setting": "Hepatitis B virus [6]; read-out: Relative Level of RI DNA", "value": 46, "unit": "%"},
      {"measurement": "activity at 10 µM", "setting": "Hepatitis B virus [6]; [11]", "value": 92, "unit": "%"},
      {"measurement": "activity at 10 µM", "setting": "Hepatitis B virus [6]; [10]", "value": 2, "unit": "%"},
      {"measurement": "inhibitory activity against HBV-induced antigen syntheses", "setting": "Hepatitis B virus [7]; 10 μM, in words", "value": "no inhibitory activity"},
      {"measurement": "activity at 10 µM", "setting": "Hepatitis B virus [7]; read-out: Relative Levels of HBcAg", "value": 102, "unit": "%"},
      {"measurement": "activity at 10 µM", "setting": "Hepatitis B virus [7]; read-out: Relative Levels of HBeAg", "value": 95, "unit": "%"},
      {"measurement": "activity at 10 µM", "setting": "Hepatitis B virus [7]; read-out: Relative Levels of HBsAg", "value": 96, "unit": "%"}
    ]}
  ]
}
